Measured values published in PubChem BioAssay (NCI).
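Compound exposure: 48 hours, 5 concentrations, 96-well plates. TGI is the concentration that stops growth completely.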

What was measured:
Experiment in all cases: DTP human tumour cell line panel, 48 h
OVCAR-8 ovarian = tested on: OVCAR-8 ovarian
SK-OV-3 ovarian = tested on: SK-OV-3 ovarian
OVCAR-4 ovarian = tested on: OVCAR-4 ovarian
UACC-62 melanoma = tested on: UACC-62 melanoma
SK-MEL-5 melanoma = tested on: SK-MEL-5 melanoma
786-0 renal = tested on: 786-0 renal
SN12C renal = tested on: SN12C renal
SNB-78 CNS = tested on: SNB-78 CNS
KM12 colon = tested on: KM12 colon
UO-31 renal = tested on: UO-31 renal
SF-539 CNS = tested on: SF-539 CNS
NCI-H522 lung = tested on: NCI-H522 lung
HOP-18 NSCLC = tested on: HOP-18 NSCLC
SK-MEL-28 melanoma = tested on: SK-MEL-28 melanoma
U251 CNS = tested on: U251 CNS
DMS 273 small cell lung = tested on: DMS 273 small cell lung
RPMI-8226 leukemia = tested on: RPMI-8226 leukemia
OVCAR-5 ovarian = tested on: OVCAR-5 ovarian
NCI-H23 lung = tested on: NCI-H23 lung
NCI-H226 lung = tested on: NCI-H226 lung
A549 NSCLC = tested on: A549 NSCLC
LOX IMVI melanoma = tested on: LOX IMVI melanoma
MOLT-4 leukemia = tested on: MOLT-4 leukemia
SF-295 CNS = tested on: SF-295 CNS
EKVX NSCLC = tested on: EKVX NSCLC
DMS 114 small cell lung = tested on: DMS 114 small cell lung
IGROV1 ovarian = tested on: IGROV1 ovarian
K-562 leukemia = tested on: K-562 leukemia
A498 renal = tested on: A498 renal
HCC-2998 colon = tested on: HCC-2998 colon
M19-MEL melanoma = tested on: M19-MEL melanoma
COLO 205 colon = tested on: COLO 205 colon
OVCAR-3 ovarian = tested on: OVCAR-3 ovarian
HCT-15 colon = tested on: HCT-15 colon
SNB-75 CNS = tested on: SNB-75 CNS
XF 498 CNS = tested on: XF 498 CNS
RXF 393 renal = tested on: RXF 393 renal
TK-10 renal = tested on: TK-10 renal
SK-MEL-2 melanoma = tested on: SK-MEL-2 melanoma
UACC-257 melanoma = tested on: UACC-257 melanoma
HOP-62 NSCLC = tested on: HOP-62 NSCLC
M14 melanoma = tested on: M14 melanoma
HCT-116 colon = tested on: HCT-116 colon
HL-60(TB) leukemia = tested on: HL-60(TB) leukemia
MALME-3M melanoma = tested on: MALME-3M melanoma
KM20L2 colon = tested on: KM20L2 colon
NCI-H460 lung = tested on: NCI-H460 lung
SW-620 colon = tested on: SW-620 colon
DLD-1 colon = tested on: DLD-1 colon
LXFL 529 NSCLC = tested on: LXFL 529 NSCLC
SF-268 CNS = tested on: SF-268 CNS
CAKI-1 renal = tested on: CAKI-1 renal
SNB-19 CNS = tested on: SNB-19 CNS
HOP-92 NSCLC = tested on: HOP-92 NSCLC
HT29 colon = tested on: HT29 colon
ACHN renal = tested on: ACHN renal
CCRF-CEM leukemia = tested on: CCRF-CEM leukemia
SR leukemia = tested on: SR leukemia

Measured: TGI

CCCOCN1COCN=C1NC#N
47.5 µM: LOX IMVI melanoma
29.8 µM: RXF 393 renal
88.1 µM: M19-MEL melanoma
41.9 µM: DMS 273 small cell lung
43.8 µM: U251 CNS
32.6 µM: COLO 205 colon | HCT-15 colon
32.3 µM: SW-620 colon
45.1 µM: 786-0 renal
39.7 µM: DMS 114 small cell lung
not listed: CCRF-CEM leukemia | SR leukemia
> 100 µM: all other assays above

CC(C)Cc1cccc(C(C)C)c1NC(=O)CCC(=O)N/N=C1\C(=N/NC(=O)CCC(=O)Nc2c(C(C)C)cccc2C(C)C)C(c2ccc3c(c2)OCO3)Oc2ccccc21 (stereo not given)
not listed: 786-0 renal | HOP-18 NSCLC | OVCAR-3 ovarian | MALME-3M melanoma
> 100 µM: all other assays above
